In patent publication US20070264702A1 (priority 2003, published 2007):
pKd: −log10 of the molar value. “Also recorded” adds a separate entry of the source.

Legend:
[1] = system: SL7207 4S2 pWSK-/pCAS-trp′::′lacZ infecting HeLa cells; assay type: cell-based
[2] = system: nahR/Psal::xylS2 cascade circuit with Pm::trp′::′lacZ in SL7207 4S2; assay type: cell-based, Salmonella typhimurium
[3] = system: SL7207 4S2; assay: growth inhibition of the bacterial cultures at high inducer concentration; conditions: high concentrations (5 mM)
[4] = system: nahR/Psal with xylS2/Pm downstream; conditions: cited from earlier work
[5] = system: XylS2; conditions: XylS2 mutant regulator; cited from earlier work
[6] = in vivo; cited from earlier work
[7] = biological target: MarR (Escherichia coli, UniProt P27245); conditions: cited from earlier work
Sequence of MarR (P27245 whole entry): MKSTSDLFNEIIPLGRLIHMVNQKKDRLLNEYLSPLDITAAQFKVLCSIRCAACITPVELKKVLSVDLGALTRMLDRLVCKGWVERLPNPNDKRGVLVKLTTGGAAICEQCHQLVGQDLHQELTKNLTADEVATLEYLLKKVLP

Row | SMILES | β-galactosidase expression in bacteria infecting HeLa cells [1] | induction of the system, salicylate compared with acetylsalicylic acid [2] | growth inhibition [3] | induction reached with regulation cascade system [4] | induction of expression [5] [fold] | half-life [6] [h] | pKd [7]
1 | CC(=O)Oc1ccccc1C(=O)O [acetylsalicylic acid] | induce similar levels of β-galactosidase; also recorded: activate the signal cascade to similar levels | induced the system similarly | growth inhibition was evident | 1,000 fold | 10 | – | –
2 | O=C(O)c1ccccc1O [salicylate] | – | – | – | – | – | 2 to 4 | 3.30
